According to US10766869B2, “Triazoles for the treatment of demyelinating dieases” (Vertex Pharmaceuticals Incorporated, priority 2015, dated 2020):
Read-outs that look alike come from different tables or passages of the source.

Test system: primary rat mixed cortical cells
Test: In vitro myelination assay (MBP positive myelin strands, fold myelin pixels above background)
Assay type: cell-based
Conditions: Rattus norvegicus; for fold induction at 1 µM: 1.0 μM compound; for fold induction at 10 µM: 10.0 μM compound
Procedure, shortened: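 Myelination read as total MBP-immunopositive strand pixels per well, imaged at 10× after fixation on day 14 and expressed relative to untreated wells, at 1.0 and 10.0 μM. Cells: dissociated postnatal day 1 rat cortex, cultured two weeks with compound, re-dosed at days 6 and 10.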

[1] = relative to baseline of no added compound, read-out: Fold myelin pixels above background, 1.0 μM
[2] = relative to baseline of no added compound, read-out: Fold myelin pixels above background, 10.0 μM
[3] = relative to baseline of no added compound, read-out: Fold myelin pixels above background
[4] = read-out: Fold myelin pixels above background relative to baseline of no added compound

SMILES | fold induction at 1 µM [1] | fold induction at 10 µM [2] | fold induction at 1 µM [3] | fold induction at 10 µM [3] | other results
c1ccc(-n2cnc(Nc3cc(C4CCOC4)cc(N4CCOCC4)c3)n2)cc1 (centres unmarked) [Compound 165, N-(3-morpholino-5-tetrahydrofuran-3-yl-phenyl)-1-phenyl-1,2,4-triazol-3-amine] | 100 to 1000 | 10 to 100 |  |  | 
Cc1cc(Nc2ncn(-c3cccc(F)c3)n2)cc(N2CCCC2)c1 [Compound 272, 1-(3-fluorophenyl)-N-(3-methyl-5-pyrrolidin-1-yl-phenyl)-1,2,4-triazol-3-amine] | 10 to 100 | ≤ 1 |  |  | 
Cc1cc(Nc2ncn(-c3ccccc3F)n2)cc(N2CCN(C3COC3)CC2)c1 [Compound 223, 1-(2-fluorophenyl)-N-[3-methyl-5-[4-(oxetan-3-yl)piperazin-1-yl]phenyl]-1,2,4-triazol-3-amine] | 10 to 100 | 10 to 100 |  |  | 
Cc1cc(Nc2ncn(-c3ccc(F)cc3)n2)cc(N2CCN(C3COC3)CC2)c1 [Compound 622, 1-(4-fluorophenyl)-N-[3-methyl-5-[4-(oxetan-3-yl)piperazin-1-yl]phenyl]-1,2,4-triazol-3-amine] |  |  | 1 to 10 | 1 to 10 | 
Cc1cc(Nc2ncn(-c3cc(F)cc(F)c3)n2)cc(N2CCN(CC(C)(C)O)CC2C)c1 (centres unmarked) [Compound 1024, 1-[4-[3-[[1-(3,5-difluorophenyl)-1,2,4-triazol-3-yl]amino]-5-methyl-phenyl]-3-methyl-piperazin-1-yl]-2-methyl-propan-2-ol] |  |  |  |  | fold induction at 1 µM [4]: 10 to 100; fold induction at 10 µM [4]: ≤ 1
CCN(CC)CCN1CCN(c2cc(C)cc(Nc3ncn(-c4cc(F)cc(F)c4)n3)c2)CC1 [Compound 987, N-[3-[4-[2-(diethylamino)ethyl]piperazin-1-yl]-5-methyl-phenyl]-1-(3,5-difluorophenyl)-1,2,4-triazol-3-amine] |  |  |  |  | fold induction at 1 µM [4]: 1 to 10; fold induction at 10 µM [4]: ≤ 1
CCc1cc(Nc2ncn(-c3cncc(C)n3)n2)cc(N2CCN(C3COC3)CC2)c1 [Compound 401, N-[3-ethyl-5-[4-(oxetan-3-yl)piperazin-1-yl]phenyl]-1-(6-methylpyrazin-2-yl)-1,2,4-triazol-3-amine] |  |  | 100 to 1000 | 100 to 1000 | 
CC(=O)N1CCCC(c2cc(C)cc(Nc3ncn(-c4ccncn4)n3)c2)C1 (centres unmarked) [Compound 449, 1-[3-[3-methyl-5-[(1-pyrimidin-4-yl-1,2,4-triazol-3-yl)amino]phenyl]-1-piperidyl]ethanone] |  |  | 100 to 1000 | ≤ 1 | 
CC1CCN(c2cc(Nc3ncn(-c4cc(F)cc(F)c4)n3)cc(C3CC3)n2)CC1 [Compound 244, 2-cyclopropyl-N-[1-(3,5-difluorophenyl)-1,2,4-triazol-3-yl]-6-(4-methyl-1-piperidyl)pyridin-4-amine] | 1 to 10 | 10 to 100 |  |  | 
CC(=O)N1CCN(c2cc(Nc3ncn(-c4ccccc4)n3)cc(C(F)F)c2)CC1 [Compound 144, 1-[4-[3-(difluoromethyl)-5-[(1-phenyl-1,2,4-triazol-3-yl)amino]phenyl]piperazin-1-yl]ethanone] | 100 to 1000 | ≤ 1 |  |  | 
COc1ccc(-n2cnc(Nc3cc(C)cc(N4CC(N5CCOCC5)C4)c3)n2)cc1 [Compound 841, 1-(4-methoxyphenyl)-N-[3-methyl-5-(3-morpholinoazetidin-1-yl)phenyl]-1,2,4-triazol-3-amine] |  |  |  |  | fold induction at 1 µM [4]: 1 to 10; fold induction at 10 µM [4]: 10 to 100
Cc1cc(Nc2ncn(-c3cc(F)cc(F)c3)n2)cc(N2CC(NCCO)C2)c1 [Compound 791, 2-[[1-[3-[[1-(3,5-difluorophenyl)-1,2,4-triazol-3-yl]amino]-5-methyl-phenyl]azetidin-3-yl]amino]ethanol] |  |  |  |  | fold induction at 1 µM [4]: 10 to 100; fold induction at 10 µM [4]: ≤ 1
Fc1cc(Nc2ncn(-c3ccnc(F)c3)n2)cc(N2CCN(C3COC3)CC2)c1 [Compound 783, N-[3-fluoro-5-[4-(oxetan-3-yl)piperazin-1-yl]phenyl]-1-(2-fluoro-4-pyridyl)-1,2,4-triazol-3-amine] |  |  | ≤ 1 | 1 to 10 | 
Fc1cc(F)cc(-n2cnc(Nc3cc(N4CC(N5CCOCC5)C4)cc(F)n3)n2)c1 [Compound 612, N-[1-(3,5-difluorophenyl)-1,2,4-triazol-3-yl]-6-fluoro-4-(3-morpholinoazetidin-1-yl)pyridin-2-amine] |  |  | ≤ 1 | 10 to 100 | 
FC(F)c1cc(Nc2ncn(-c3cccnc3)n2)cc(N2CCN(C3COC3)CC2)c1 [Compound 209, N-[3-(difluoromethyl)-5-[4-(oxetan-3-yl)piperazin-1-yl]phenyl]-1-(3-pyridyl)-1,2,4-triazol-3-amine] | 100 to 1000 | 100 to 1000 |  |  | 
Cc1cc(Nc2ncn(-c3ccccc3)n2)cc(O[C@H]2CCN(C3COC3)C2)c1 [Compound 239, N-[3-methyl-5-[(3S)-1-(oxetan-3-yl)pyrrolidin-3-yl]oxy-phenyl]-1-phenyl-1,2,4-triazol-3-amine] | 1000 to 10000 | ≤ 1 |  |  | 

SMILES | fold induction at 1 µM [1] | fold induction at 10 µM [2] | fold induction at 1 µM [3] | fold induction at 10 µM [3] | other results
Cc1cc(Nc2ncn(-c3cc(F)cc(F)c3)n2)cc(O[C@H]2CCCN(C3COC3)C2)c1 (single isomer, unassigned) [Compound 700] |  |  | 10 to 100 | ≤ 1 | 
CN1CCN(c2cc(Nc3ncn(-c4ccccc4)n3)cc(C(F)(F)F)c2)CC1 [Compound 486, N-[3-(4-methylpiperazin-1-yl)-5-(trifluoromethyl)phenyl]-1-phenyl-1,2,4-triazol-3-amine] |  |  | 100 to 1000 | ≤ 1 | 
Cc1cc(Nc2ncn(-c3ccc(F)c(F)c3)n2)c(F)c(OC2CCOC2)c1 (centres unmarked) [Compound 978, 1-(3,4-difluorophenyl)-N-(2-fluoro-5-methyl-3-tetrahydrofuran-3-yloxy-phenyl)-1,2,4-triazol-3-amine] |  |  |  |  | fold induction at 1 µM [4]: 10 to 100; fold induction at 10 µM [4]: 1 to 10
Cc1cc(Nc2ncn(-c3cccc(C#N)c3)n2)cc(N2CCN(C3COC3)CC2)c1 [Compound 759, 3-[3-[3-methyl-5-[4-(oxetan-3-yl)piperazin-1-yl]anilino]-1,2,4-triazol-1-yl]benzonitrile] |  |  | 1 to 10 | 1 to 10 | 
Cc1cc(Nc2ncn(-c3cc(F)cc(F)c3)n2)cc(N2CC(N3CCOC[C@@H]3C)C2)c1 (single isomer, unassigned) [Compound 800] |  |  |  |  | fold induction at 1 µM [4]: 10 to 100; fold induction at 10 µM [4]: 10 to 100
Cc1cc(Nc2ncn(-c3ccccc3)n2)nc(N2CC(N3CCOCC3)C2)c1 [Compound 502, 4-methyl-6-(3-morpholinoazetidin-1-yl)-N-(1-phenyl-1,2,4-triazol-3-yl)pyridin-2-amine] |  |  | 1 to 10 | ≤ 1 | 
Cc1cc(Nc2ncn(-c3cncnc3)n2)cc(N2CCN(C)CC2)c1 [Compound 381, N-[3-methyl-5-(4-methylpiperazin-1-yl)phenyl]-1-pyrimidin-5-yl-1,2,4-triazol-3-amine] | 1 to 10 | 100 to 1000 |  |  | 
CC1=NOC(CNc2cc(C)cc(Nc3ncn(-c4cc(F)cc(F)c4)n3)c2)C1 (centres unmarked) [Compound 1004, N1-[1-(3,5-difluorophenyl)-1,2,4-triazol-3-yl]-5-methyl-N3-[(3-methyl-4,5-dihydroisoxazol-5-yl)methyl]benzene-1,3-diamine] |  |  |  |  | fold induction at 1 µM [4]: 1 to 10; fold induction at 10 µM [4]: 1 to 10
CNC1CCN(c2cc(C)cc(Nc3ncn(-c4cc(F)cc(F)c4)n3)c2)C1 (centres unmarked) [Compound 267, 1-(3,5-difluorophenyl)-N-[3-methyl-5-[3-(methylamino)pyrrolidin-1-yl]phenyl]-1,2,4-triazol-3-amine] | 10 to 100 | ≤ 1 |  |  | 
Cc1cc(Nc2ncn(-c3cc(F)cc(F)c3)n2)cc(N2CCN3CCC[C@@H]3C2)c1 [Compound 128, N-[3-[(8aR)-3,4,6,7,8,8a-hexahydro-1H-pyrrolo[1,2-a]pyrazin-2-yl]-5-methyl-phenyl]-1-(3,5-difluorophenyl)-1,2,4-triazol-3-amine] | 10 to 100 | 10 to 100 |  |  | 
CCc1cc(Nc2ncn(-c3ccc(C)c(F)c3)n2)cc(N2CCN(C3COC3)CC2)c1 [Compound 761, N-[3-ethyl-5-[4-(oxetan-3-yl)piperazin-1-yl]phenyl]-1-(3-fluoro-4-methyl-phenyl)-1,2,4-triazol-3-amine] |  |  | 1 to 10 | ≤ 1 | 
[2H]C1([2H])N(c2cc(C)cc(Nc3ncn(-c4cc(F)cc(F)c4)n3)c2)C([2H])([2H])C([2H])([2H])N(C2CCOC2)C1([2H])[2H] (centres unmarked) [Compound 1042, 1-(3,5-difluorophenyl)-N-[3-methyl-5-(2,2,3,3,5,5,6,6-octadeuterio-4-tetrahydrofuran-3-yl-piperazin-1-yl)phenyl]-1,2,4-triazol-3-amine] |  |  |  |  | fold induction at 1 µM [4]: 10 to 100; fold induction at 10 µM [4]: ≤ 1
Fc1cc(F)cc(-n2cnc(Nc3cc(C4CC4)nc(N4CCCCC4)c3)n2)c1 [Compound 378, 2-cyclopropyl-N-[1-(3,5-difluorophenyl)-1,2,4-triazol-3-yl]-6-(1-piperidyl)pyridin-4-amine] | 1 to 10 | 10 to 100 |  |  | 
Cc1cc(Nc2ncn(-c3cc(F)cc(F)c3)n2)cc(C2CN(C3COC3)C(C)CO2)c1 (centres unmarked) [Compound 629, 1-(3,5-difluorophenyl)-N-[3-methyl-5-[5-methyl-4-(oxetan-3-yl)morpholin-2-yl]phenyl]-1,2,4-triazol-3-amine] |  |  | 10 to 100 | ≤ 1 | 
Cc1cc(Nc2ncn(-c3cccc(C(F)(F)F)c3)n2)cc(N2CCCC2)c1 [Compound 190, N-(3-methyl-5-pyrrolidin-1-yl-phenyl)-1-[3-(trifluoromethyl)phenyl]-1,2,4-triazol-3-amine] | 1 to 10 | ≤ 1 |  |  | 
